The values below come from patent US7037929B1, “2-amino-thiazole derivatives, process for their preparation, and their use as antitumor agents” (Pharmacia & Upjohn S.p.A., priority 1998, dated 2006).

Each structure is given as a SMILES string.

In the assay the target is cdk2/cyclin A complex (Homo sapiens, UniProt P24941). Briefly: inhibition assay of cdk2/Cyclin A activity (MultiScreen-PH phosphocellulose filter plate, 33P-ATP, histone H1). It is filed as biochemical. The conditions noted are these: ATP and histone H1 substrate concentrations varied; random bireactant system equation; read-out: inhibiting activity towards the cdk2/cyclin A complex (Ki). As for the experimental part:
The inhibiting activity of putative cdk/cyclin inhibitors and the potency of selected compounds was determined through a method of assay based on the use of the MultiScreen-PH 96 well plate (Millipore), in which a phosphocellulose filter paper was placed at each well bottom allowing binding of positive charged substrate after a washing/filtration step.
When a radioactivity labelled phosphate moiety was transferred by the ser/threo kinase to the filter-bound histone, light emitted was measured in a scintillation counter. The inhibition assay of cdk2/Cyclin A activity was performed according to the following protocol:
Kinase reaction: 1.5 μM histone H1 substrate, 25 μM ATP (0. 5 μCi P^33γ-ATP), 30 ng Cyclin A/cdk2 complex, […] in a final volume of 100 μl buffer (TRIS HCl 10 mM pH 7.5, MgCl2 10 mM, 7.5 mM DTT) were added to each well of a 96 U bottom well plate. After 10 min at 37° C. incubation, reaction was stopped by 20 μl EDTA 120 mM.
Capture: 100 μl were transferred from each well to MultiScreen plate, to allow substrate binding to phosphocellulose filter. […]
Detection: filters were allowed to dry at 37° C., then 100 μl/well scintillant were added and ^33P labelled histone H1 was detected by radioactivity counting in the Top-Count instrument.
Results: data were analysed and expressed as % inhibition referred to total activity of enzyme (=100%). […]

For `CC(C)c1cnc(NC(=O)Cc2ccc(N(C)C)cc2)s1` [2-[4-(dimethylamino)phenyl]-N-(5-isopropyl-1,3-thiazol-2-yl)acetamide], the Ki was 100 nM.
